Assay results: ChEMBL document CHEMBL4330185, “Computer-Assisted Discovery and Structural Optimization of a Novel Retinoid X Receptor Agonist Chemotype” (ACS Med Chem Lett, 2019)
Values after ≈ are worked out from the molar mass of the structure shown. Active and inactive are the calls of the source. No cut-off for these calls is given here.

Key:
[1] = target: Luciferin 4-monooxygenase (Photinus pyralis) (UniProt P08659); test: Inhibition of firefly luciferase activity in HEK293T cells co-expressing human Gal4-DBD fused RXRbeta LBD after 12 to 14 hrs by luminescence assay; format: cell-based
Luciferin 4-monooxygenase (Photinus pyralis), sequence (P08659 whole entry, the tested form may be a part): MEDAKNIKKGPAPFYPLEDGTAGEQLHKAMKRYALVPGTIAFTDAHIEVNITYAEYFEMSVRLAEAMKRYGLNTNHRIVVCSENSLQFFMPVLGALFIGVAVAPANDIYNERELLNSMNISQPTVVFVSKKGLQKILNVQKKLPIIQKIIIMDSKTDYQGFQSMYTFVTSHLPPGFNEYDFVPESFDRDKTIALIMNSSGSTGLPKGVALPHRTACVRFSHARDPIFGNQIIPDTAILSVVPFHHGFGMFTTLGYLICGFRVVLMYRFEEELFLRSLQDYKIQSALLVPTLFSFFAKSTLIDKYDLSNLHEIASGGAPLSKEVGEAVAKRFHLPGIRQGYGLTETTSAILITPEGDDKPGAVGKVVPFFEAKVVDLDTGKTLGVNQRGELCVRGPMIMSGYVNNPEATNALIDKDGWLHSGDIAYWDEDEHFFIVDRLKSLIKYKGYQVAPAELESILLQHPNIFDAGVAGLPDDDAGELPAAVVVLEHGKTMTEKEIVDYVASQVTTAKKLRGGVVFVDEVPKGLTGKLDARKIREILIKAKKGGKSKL

[2] = target: Luciferin 4-monooxygenase (Photinus pyralis) (UniProt P08659); test: Inhibition of firefly luciferase activity in HEK293T cells co-expressing human Gal4-DBD fused RXRgamma LBD after 12 to 14 hrs by luminescence assay; format: cell-based
[3] = target: Luciferin 4-monooxygenase (Photinus pyralis) (UniProt P08659); test: Inhibition of firefly luciferase activity in HEK293T cells co-expressing human Gal4-DBD fused RXRalpha LBD after 12 to 14 hrs by luminescence assay; format: cell-based
[4] = target: T1, Retinoic acid receptor RXR-alpha (Homo sapiens) (UniProt P19793); test: Agonist activity at human Gal4-DBD fused RXRalpha LBD expressed in HEK293T cells after 12 to 14 hrs by luciferase reporter gene assay relative to bexarotene; format: cell-based
T1 sequence (whole entry): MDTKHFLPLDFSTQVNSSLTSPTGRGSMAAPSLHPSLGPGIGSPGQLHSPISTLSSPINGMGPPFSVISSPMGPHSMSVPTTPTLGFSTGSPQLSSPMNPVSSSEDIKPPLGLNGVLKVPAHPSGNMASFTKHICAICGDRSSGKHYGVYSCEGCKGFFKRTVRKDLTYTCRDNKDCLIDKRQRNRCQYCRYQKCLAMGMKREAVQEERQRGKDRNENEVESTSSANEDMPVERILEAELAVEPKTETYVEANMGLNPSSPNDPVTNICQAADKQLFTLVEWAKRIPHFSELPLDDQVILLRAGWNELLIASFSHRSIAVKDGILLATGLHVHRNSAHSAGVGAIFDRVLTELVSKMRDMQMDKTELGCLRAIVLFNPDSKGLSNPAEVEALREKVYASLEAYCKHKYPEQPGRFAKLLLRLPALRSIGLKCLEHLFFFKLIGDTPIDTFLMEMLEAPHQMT

[5] = test system: HepG2; test: Cytotoxicity against human HepG2 cells up to 100 uM after 48 hrs by WST1 assay; format: cell-based; conditions: hepg2, 48 h
[6] = target: T2, Retinoic acid receptor RXR-alpha (Homo sapiens, UniProt P19793); test: Agonist activity at human Gal4-DBD fused RXRalpha LBD expressed in HEK293T cells after 12 to 14 hrs by luciferase reporter gene assay; format: cell-based; conditions: read-out: EC50
T2 sequence (P19793 whole entry): T1 sequence (whole entry)

[7] = target: T3, Retinoic acid receptor RXR-gamma (Homo sapiens, UniProt P48443); test: Agonist activity at human Gal4-DBD fused RXRgamma LBD expressed in HEK293T cells after 12 to 14 hrs by luciferase reporter gene assay; format: cell-based; conditions: read-out: EC50
T3 sequence (P48443 whole entry): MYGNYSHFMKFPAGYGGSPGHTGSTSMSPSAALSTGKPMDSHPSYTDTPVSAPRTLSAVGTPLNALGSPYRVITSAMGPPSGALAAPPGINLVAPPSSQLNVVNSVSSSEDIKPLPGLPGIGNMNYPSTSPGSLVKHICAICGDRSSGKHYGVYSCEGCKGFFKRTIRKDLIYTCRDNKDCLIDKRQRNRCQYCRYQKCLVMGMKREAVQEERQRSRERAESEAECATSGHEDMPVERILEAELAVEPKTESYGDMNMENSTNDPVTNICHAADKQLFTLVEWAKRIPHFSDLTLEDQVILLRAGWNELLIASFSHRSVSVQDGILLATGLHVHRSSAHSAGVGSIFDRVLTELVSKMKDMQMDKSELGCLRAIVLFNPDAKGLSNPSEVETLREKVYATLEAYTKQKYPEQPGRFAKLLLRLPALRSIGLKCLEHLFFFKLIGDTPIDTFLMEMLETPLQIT

[8] = target: T4, Retinoic acid receptor RXR-beta (Homo sapiens, UniProt P28702); test: Agonist activity at human Gal4-DBD fused RXRbeta LBD expressed in HEK293T cells after 12 to 14 hrs by luciferase reporter gene assay; format: cell-based; conditions: read-out: EC50
T4 sequence (P28702 whole entry): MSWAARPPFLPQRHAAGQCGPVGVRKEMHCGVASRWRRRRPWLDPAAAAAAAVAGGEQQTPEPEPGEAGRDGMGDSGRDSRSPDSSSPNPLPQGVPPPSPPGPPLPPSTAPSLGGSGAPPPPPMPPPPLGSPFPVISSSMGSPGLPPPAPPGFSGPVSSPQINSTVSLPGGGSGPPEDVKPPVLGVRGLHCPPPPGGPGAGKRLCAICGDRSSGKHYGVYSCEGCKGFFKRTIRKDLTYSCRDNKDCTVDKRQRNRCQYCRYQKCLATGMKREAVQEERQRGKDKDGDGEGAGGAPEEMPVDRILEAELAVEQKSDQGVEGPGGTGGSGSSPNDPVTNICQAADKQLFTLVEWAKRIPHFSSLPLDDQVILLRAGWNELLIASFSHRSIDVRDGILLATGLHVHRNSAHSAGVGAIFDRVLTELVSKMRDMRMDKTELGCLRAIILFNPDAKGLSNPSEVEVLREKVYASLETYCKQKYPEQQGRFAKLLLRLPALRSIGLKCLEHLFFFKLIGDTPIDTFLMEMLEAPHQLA

[9] = target: T5, Retinoic acid receptor RXR-beta (Homo sapiens) (UniProt P28702); test: Agonist activity at human Gal4-DBD fused RXRbeta LBD expressed in HEK293T cells after 12 to 14 hrs by luciferase reporter gene assay relative to bexarotene; format: cell-based
T5 sequence (whole entry): T4 sequence (P28702 whole entry)

[10] = target: T1, Retinoic acid receptor RXR-alpha (Homo sapiens); test: Agonist activity at human Gal4-DBD fused RXRalpha LBD expressed in HEK293T cells at 10 uM after 12 to 14 hrs by luciferase reporter gene assay; format: cell-based
[11] = target: T6, Retinoic acid receptor alpha (Homo sapiens) (UniProt P10276); test: Agonist activity at human Gal4-DBD fused RARalpha LBD expressed in HEK293T cells at 30 uM after 12 to 14 hrs by luciferase reporter gene assay; format: cell-based
T6 sequence (whole entry): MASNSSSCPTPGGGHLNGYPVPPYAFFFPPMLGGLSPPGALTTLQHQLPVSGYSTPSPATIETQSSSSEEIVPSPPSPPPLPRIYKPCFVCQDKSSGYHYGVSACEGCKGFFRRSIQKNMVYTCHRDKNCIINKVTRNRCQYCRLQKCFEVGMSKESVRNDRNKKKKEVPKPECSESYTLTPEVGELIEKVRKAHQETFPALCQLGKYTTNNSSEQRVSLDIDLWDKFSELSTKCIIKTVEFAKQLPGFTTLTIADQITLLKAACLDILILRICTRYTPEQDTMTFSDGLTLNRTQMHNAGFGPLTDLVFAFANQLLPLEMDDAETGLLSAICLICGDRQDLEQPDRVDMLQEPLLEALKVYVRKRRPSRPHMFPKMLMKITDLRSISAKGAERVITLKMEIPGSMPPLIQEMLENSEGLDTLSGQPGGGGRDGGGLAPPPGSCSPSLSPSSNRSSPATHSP

[12] = target: T7, Retinoic acid receptor beta (Homo sapiens) (UniProt P10826); test: Agonist activity at human Gal4-DBD fused RARbeta LBD expressed in HEK293T cells at 30 uM after 12 to 14 hrs by luciferase reporter gene assay; format: cell-based
T7 sequence (whole entry): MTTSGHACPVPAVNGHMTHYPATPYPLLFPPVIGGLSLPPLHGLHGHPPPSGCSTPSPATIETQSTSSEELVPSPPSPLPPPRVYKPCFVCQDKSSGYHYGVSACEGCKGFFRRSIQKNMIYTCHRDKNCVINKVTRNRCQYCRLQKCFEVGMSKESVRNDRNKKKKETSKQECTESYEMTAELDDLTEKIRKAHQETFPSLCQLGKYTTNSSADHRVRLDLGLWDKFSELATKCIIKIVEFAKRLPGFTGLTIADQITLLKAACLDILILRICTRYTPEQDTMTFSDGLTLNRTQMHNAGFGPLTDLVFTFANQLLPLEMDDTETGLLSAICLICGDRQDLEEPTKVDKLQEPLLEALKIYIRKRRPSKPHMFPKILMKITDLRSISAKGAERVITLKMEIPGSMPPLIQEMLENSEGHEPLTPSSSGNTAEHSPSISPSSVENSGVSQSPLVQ

[13] = target: T8, Retinoic acid receptor gamma (Homo sapiens) (UniProt P13631); test: Agonist activity at human Gal4-DBD fused RARgamma LBD expressed in HEK293T cells at 30 uM after 12 to 14 hrs by luciferase reporter gene assay; format: cell-based
T8 sequence (whole entry): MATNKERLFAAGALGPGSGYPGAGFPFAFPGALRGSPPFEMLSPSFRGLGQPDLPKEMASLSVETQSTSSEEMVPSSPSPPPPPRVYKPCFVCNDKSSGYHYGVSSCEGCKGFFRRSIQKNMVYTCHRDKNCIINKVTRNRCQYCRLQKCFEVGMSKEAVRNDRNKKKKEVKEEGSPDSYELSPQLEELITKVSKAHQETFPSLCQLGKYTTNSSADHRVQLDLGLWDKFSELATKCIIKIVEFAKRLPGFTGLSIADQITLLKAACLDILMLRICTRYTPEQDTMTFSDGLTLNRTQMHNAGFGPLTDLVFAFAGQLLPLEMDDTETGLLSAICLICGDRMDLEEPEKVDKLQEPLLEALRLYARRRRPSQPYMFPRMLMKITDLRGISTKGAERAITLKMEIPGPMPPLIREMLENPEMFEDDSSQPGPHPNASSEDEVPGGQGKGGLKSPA

[14] = target: T9, Retinoic acid receptor RXR-gamma (Homo sapiens) (UniProt P48443); test: Agonist activity at human Gal4-DBD fused RXRgamma LBD expressed in HEK293T cells after 12 to 14 hrs by luciferase reporter gene assay relative to bexarotene; format: cell-based
T9 sequence (whole entry): T3 sequence (P48443 whole entry)

[15] = organism: Homo sapiens; test: Agonist activity at full length human RXR-LXR expressed in HEK293T cells co-expressing ABCA1-pGL3 at 1 uM after 12 to 14 hrs by luciferase reporter gene assay; format: cell-based
[16] = target: T10, Retinoid X receptor (Homo sapiens) (UniProt P28702+P48443+P19793); test: Agonist activity at RXR in human HepG2 cells assessed as induction of ADIPOQ mRNA expression at 1 to 10 uM after 8 hrs by RT-PCR analysis; format: cell-based
[17] = Synergistic agonist activity at full length human PPARgamma-RXR expressed in HEK293T cells co-expressing PPRE1-pGL3 after 12 to 14 hrs in presence of rosiglitazone by luciferase reporter gene assay; format: cell-based; conditions: HEK-293T
[18] = target: T2, Retinoic acid receptor RXR-alpha; test: Binding affinity to human RXRalpha LBD by ITC
[19] = Lipophilicity, log P of the compound by HPLC analysis; format: physicochemical; conditions: read-out: logP
[20] = target: T10, Retinoid X receptor (Homo sapiens); test: Agonist activity at RXR in human HepG2 cells assessed as induction of APOE mRNA expression at 1 to 10 uM after 8 hrs by RT-PCR analysis; format: cell-based
[21] = organism: Homo sapiens; test: Synergistic agonist activity at full length human RXR-LXR expressed in HEK293T cells co-expressing ABCA1-pGL3 at 1 uM after 12 to 14 hrs in presence of T090 by luciferase reporter gene assay; format: cell-based
[22] = target: T10, Retinoid X receptor (Homo sapiens); test: Agonist activity at RXR in human HepG2 cells assessed as induction of ANGPTL4 mRNA expression at 1 to 10 uM after 8 hrs by RT-PCR analysis; format: cell-based
[23] = Agonist activity at full length human PPARgamma-RXR expressed in HEK293T cells co-expressing PPRE1-pGL3 after 12 to 14 hrs by luciferase reporter gene assay; format: cell-based; conditions: HEK-293T
[24] = Aqueous solubility of the compound after 24 hrs by HPLC analysis; format: physicochemical; conditions: water
[25] = target: T5, Retinoic acid receptor RXR-beta (Homo sapiens); test: Agonist activity at human Gal4-DBD fused RXRbeta LBD expressed in HEK293T cells at 30 uM after 12 to 14 hrs by luciferase reporter gene assay; format: cell-based
[26] = target: T1, Retinoic acid receptor RXR-alpha (Homo sapiens); test: Agonist activity at human Gal4-DBD fused RXRalpha LBD expressed in HEK293T cells at 30 uM after 12 to 14 hrs by luciferase reporter gene assay; format: cell-based
[27] = target: T9, Retinoic acid receptor RXR-gamma (Homo sapiens); test: Agonist activity at human Gal4-DBD fused RXRgamma LBD expressed in HEK293T cells at 30 uM after 12 to 14 hrs by luciferase reporter gene assay; format: cell-based

O=C(O)c1cccc(COc2ccc3c(c2)CCC3)c1
inhibition [1]: Active
inhibition [2]: Active
inhibition [3]: Active

O=C(O)c1ccc(COc2ccc3c(c2)CCC3)cc1
Emax [4]: 29%
Activity [5]: Non-Toxic
EC50 [6]: 6.7 µM
EC50 [7]: 17 µM
EC50 [8]: 8.8 µM
Emax [9]: 28%
Activity [10]: Active
Activity [11]: Active
Activity [12]: Active
Activity [13]: Active
Emax [14]: 5%

O=C(O)c1ccc(COc2ccccc2-c2ccccc2)cc1
Activity [15]: Active
Activity [16]: Active
Emax [4]: 70%
Activity [5]: Non-Toxic
EC50 [17]: 0.47 µM
EC50 [6]: 0.28 µM
Kd [18]: 0.095 µM
logP [19]: 2.03
EC50 [7]: 1.6 µM
Activity [20]: Active
Activity [21]: Active
EC50 [8]: 0.31 µM
Activity [22]: Active
Emax [9]: 44%
EC50 [23]: 1 µM
solubility at 24 h [24]: 1.31 µg/mL (≈ 4.3 µM)
Emax [14]: 94%

O=C(O)c1ccc(C(=O)Nc2ccc3c(c2)CCC3)cc1
Activity [25]: inactive
Activity [26]: inactive
Activity [27]: inactive
